# Where two headings read alike, the source gives them in different places. Positions of bridges follow the written chain, without caps; N, C: chain ends. Non-standard residues stand in square brackets, D forms with d. Residues, ends and D or L forms follow the SMILES beside them. Phe(4-F) = N[C@@H](Cc1ccc(F)cc1)C(=O)O; R8 = C=CCCCCCC[C@@](C)(N)C(=O)O; hLeu = CC(C)CC[C@H](N)C(=O)O; S5 = C=CCCC[C@](C)(N)C(=O)O; Aib = CC(C)(N)C(=O)O
# Columns and labels:
# [1] = molecular target: Mcl-1 (Homo sapiens, UniProt Q07820); assay: Ki determination for Mcl-1 (BCL-2 family binding spectrum)
# Mcl-1, sequence (Q07820 whole entry, species assumed): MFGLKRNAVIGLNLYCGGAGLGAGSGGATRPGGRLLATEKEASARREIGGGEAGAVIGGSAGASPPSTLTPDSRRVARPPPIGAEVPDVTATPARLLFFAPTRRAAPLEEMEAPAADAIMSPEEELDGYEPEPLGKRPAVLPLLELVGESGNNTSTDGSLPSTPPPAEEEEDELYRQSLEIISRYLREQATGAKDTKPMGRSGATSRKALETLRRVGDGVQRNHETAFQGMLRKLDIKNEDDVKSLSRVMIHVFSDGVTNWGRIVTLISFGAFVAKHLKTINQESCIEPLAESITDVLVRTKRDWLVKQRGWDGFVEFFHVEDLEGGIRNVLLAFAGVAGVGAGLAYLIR
# Summary of the method: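 Binding to Mcl-1 was measured as displacement of a fluorescein-labelled macrocyclic peptidomimetic, read by fluorescence polarization. Constants were fitted by nonlinear regression.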
# [2] = molecular target: T1, MCL-1/BAK protein-protein interaction (Homo sapiens, UniProt Q07820); assay: MCL-1 displacement study (BAK FRET signal); assay type: cell-based; conditions: 10 μM and 20 μM
# T1 construct: host or cells: Raji
# T1 sequence (Q07820 whole entry): as the sequence (Q07820 whole entry, species assumed) above
# Protocol: BIM peptidomimetic macrocycles were tested for displacement of MCL-1 from a BAK fluorescence resonance energy transfer (FRET) peptide.
# FIG. 19 compares normalized FRET signals of samples to determine the samples' effects in disrupting MCL-1/BAK protein-protein interactions.
# [3] = molecular target: Mcl-1, Bcl-xL, Bcl-2; assay: BCL-2 family selectivity profile; assay type: binding; conditions: for Profile: TABLE 8
# Excerpt: The binding spectrum of stapled BIM BH3 peptides were tuned for BCL-2 family selectivity. […] ABT-199 is venetoclax, and † represents values reported in the literature.
# [4] = test system: SK-MEL-2 melanoma cells; assay: Cell viability (CellTiter-Glo), SK-MEL-2; assay type: cell-based; conditions: 40 μM; for % cell viability: SK-MEL-2, 5% serum
# Protocol: (§1) Cancer cells were cultured using a standard culture medium containing 10% fetal bovine serum (FBS) and penicillin-streptomycin (A375P: DMEM; SK-MEL-2, SK-MEL-28: EMEM). Cells were plated in 96-well plates (5×10^3 cells per well) and, after overnight incubation, treated with the indicated concentrations of Stapled Peptides in the corresponding medium supplemented with 5% FBS for the indicated durations. Cell viability and caspase-3/7 activation was measured using CellTiter-Glo and Caspase-Glo 3/7 chemiluminescence reagents (Promega), respectively. Luminescence was detected by a microplate reader (Spectramax M5, Molecular Devices).
# [5] = test system: SK-MEL-28 melanoma cells; assay: Cell viability (CellTiter-Glo), SK-MEL-28; assay type: cell-based; conditions: 40 μM; for % cell viability: SK-MEL-28, 5% serum
# Protocol: as §1
# [6] = test system: SK-MEL-2 melanoma cells; assay: Caspase-3/7 activation (Caspase-Glo 3/7), SK-MEL-2; assay type: cell-based
# Protocol: as §1
# [7] = test system: ABT-199 resistant Burkitt lymphoma Raji cells; assay: WST-1 anti-proliferative activity in Raji cells; assay type: cell-based, Human; conditions: for IC50: TABLE 9, Raji cell proliferation
# Excerpt: WST-1 is a cell proliferation reagent that is used in colorimetric assays designed to measure the relative proliferation rates of cells in culture. The assay is based on the conversion of the tetrazolium salt WST-1 into a colored dye by mitochondrial dehydrogenase enzymes. The soluble salt is released into the media. Within a given time period, the reaction produces a color change that is directly proportional to the amount of mitochondrial dehydrogenase in a culture. The WST-1 assay measures the net metabolic activity of cells.
# [8] = test system: A375-P melanoma cells; assay: Cell viability (CellTiter-Glo), A375-P; assay type: cell-based; conditions: 40 μM; for % cell viability: A375-P, 5% serum
# Protocol: as §1
# [9] = test system: SK-MEL-28 melanoma cells; assay: Caspase-3/7 activation (Caspase-Glo 3/7), SK-MEL-28; assay type: cell-based
# Protocol: as §1
# [10] = test system: A375-P melanoma cells; assay: Caspase-3/7 activation (Caspase-Glo 3/7), A375-P; assay type: cell-based
# Protocol: as §1
# [11] = molecular target: Bcl-xL (Homo sapiens, UniProt Q07817); assay: Ki determination for Bcl-xL (BCL-2 family binding spectrum); conditions: TABLE 8; read-out: Bcl-xL Ki
# Bcl-xL, sequence (Q07817 whole entry, species assumed): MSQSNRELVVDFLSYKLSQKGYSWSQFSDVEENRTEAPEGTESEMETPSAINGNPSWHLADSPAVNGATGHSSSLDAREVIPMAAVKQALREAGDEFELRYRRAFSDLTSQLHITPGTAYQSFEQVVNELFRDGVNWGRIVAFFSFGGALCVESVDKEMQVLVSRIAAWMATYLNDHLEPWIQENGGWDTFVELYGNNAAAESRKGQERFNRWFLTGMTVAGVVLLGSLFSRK
# Summary of the method: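 Competitive fluorescence polarization: compounds (1 nM–1 mM) with 25 nM fluoresceinated peptidomimetic macrocycle and 50 nM protein in 140 mM NaCl, 50 mM Tris-HCl pH 7.4, 30 min at room temperature. Constants from nonlinear regression.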
# [12] = test system: released LDH (damaged cells); assay: Lactate dehydrogenase cytotoxicity colorimetric assay; assay type: cell-based; conditions: 5% serum
# Excerpt: When cell membranes are compromised or damaged, lactate dehydrogenase (LDH), a soluble yet stable enzyme found inside every living cell, is released into the surrounding extracellular space. The presence of LDH in the culture medium can be used as a cell death marker. The relative amounts of live and dead cells within the medium can then be quantified by measuring the amount of released LDH using a colorimetric or fluorimetric LDH cytotoxicity assay. When using an LDH colorimetric assay, the amount of LDH released in the surrounding environment is measured with an enzymatic reaction that converts iodonitrotetrazolium (INT) into red-colored formazan. When LDH is present in the cell culture, the LDH reduces NAD^+ to NADH and H^+ through the oxidation of lactate to pyruvate. Afterward, the catalyst (diaphorase) then transfers H/H^+ from NADH^+H^+ to the trazolium salt INT to form the red-colored formazan salt. The amount of color produced is measured at 490 nm by standard spectroscopy, and is proportional to the amount of damaged cells in the culture.
# [13] = test system: BAX-BAK^−/− double knock outs (DKO) MEF cells; assay: On-mechanism cytotoxic activity, BAX-BAK-/- double knock out MEF cells; assay type: cell-based; conditions: 5% serum
# [14] = test system: BAX-BAK^wt/wt MEF cells; assay: On-mechanism cytotoxic activity, BAX-BAK wt/wt MEF cells; assay type: cell-based; conditions: 5% serum
# [15] = test system: MCL-1 driven Raji cells
smiles,measurement,setting,value
CC[C@H](C)[C@H](NC(=O)[C@H](Cc1c[nH]c2ccccc12)NC(=O)[C@H](CCCNC(=N)N)NC(C)=O)C(=O)N[C@@H](C)C(=O)N[C@@H](CCC(N)=O)C(=O)N[C@@H](C)C(=O)N[C@@H](CC(C)C)C(=O)N[C@@H](CCCNC(=N)N)C(=O)N[C@@]1(C)CCCC=CCCC[C@@](C)(C(=O)N[C@@H](CC(C)C)C(=O)N[C@@H](CC(N)=O)C(=O)NC(C)(C)C(=O)N[C@@H](Cc2ccccc2)C(=O)N[C@@H](Cc2ccc(O)cc2)C(=O)N[C@@H](C)C(=O)N[C@@H](Cc2c[nH]cn2)C(=O)N[C@@H](Cc2c[nH]cn2)C(N)=O)NC(=O)[C@H](CC(=O)O)NC(=O)CNC(=O)[C@H]([C@@H](C)CC)NC1=O [Peptide #14] (Ac-RWIAQALR[S5]IGD[S5]LN[Aib]FYAHH-NH2; staple 9-13),Ki,"[1]; TABLE 7, read-out: MCL-1 Ki",11 nM
same,disrupting the MCL-1/BAK protein-protein interaction (normalized FRET signal),[2],highly effective
same,Ki of MCL-1 compared with Ki of BCL-xL or BCL-2,[3]; TABLE 7 assay,drastically lower
same,Profile,[3],Mcl-1 selective
CC[C@H](C)[C@H](NC(C)=O)C(=O)N[C@@H](Cc1c[nH]c2ccccc12)C(=O)N[C@H](C(=O)N[C@@H](C)C(=O)N[C@@H](CCC(N)=O)C(=O)N[C@@H](CCC(=O)O)C(=O)N[C@@H](CC(C)C)C(=O)N[C@@H](CCCNC(=N)N)C(=O)N[C@@]1(C)CCCC=CCCC[C@@](C)(C(=O)N[C@@H](Cc2ccccc2)C(=O)N[C@@H](CC(N)=O)C(=O)N[C@@H](C)C(=O)N[C@@H](Cc2ccc(O)cc2)C(=O)N[C@@H](Cc2ccc(O)cc2)C(=O)N[C@@H](C)C(=O)N[C@@H](CCCNC(=N)N)C(=O)N[C@@H](CCCNC(=N)N)C(N)=O)NC(=O)[C@H](CC(=O)O)NC(=O)CNC(=O)[C@H]([C@@H](C)CC)NC1=O)[C@@H](C)CC [BIM SAHBA1],% cell viability,[4],had no effect on % viability
same,proliferation,[4]; SK-MEL-2 cells,neither BIM SAHBA1 nor Aileron peptide 1 affected proliferation
same,% cell viability,[5],had no effect on % viability
same,proliferation,[5]; SK-MEL-28 cells,neither BIM SAHBA1 nor Aileron peptide 1 affected proliferation
same,apoptosis induction,"[6]; SK-MEL-2 cells, 40 μM",neither BIM SAHBA1 nor Aileron peptide 1 affected proliferation and apoptosis induction
same,IC50,[7],23700 nM
same,Profile,[3],Pan-selective
same,proliferation,[8]; A375-P cells,neither BIM SAHBA1 nor Aileron peptide 1 affected proliferation
same,% cell viability,[8],had no effect on % viability
same,apoptosis induction,"[9]; SK-MEL-28 cells, 40 μM",neither BIM SAHBA1 nor Aileron peptide 1 affected proliferation and apoptosis induction
same,apoptosis induction,"[10]; A375-P cells, 40 μM",neither BIM SAHBA1 nor Aileron peptide 1 affected proliferation and apoptosis induction
CC[C@H](C)[C@H](NC(C)=O)C(=O)N[C@@H](Cc1c[nH]c2ccccc12)C(=O)N[C@H](C(=O)N[C@@H](C)C(=O)N[C@@H](CCC(N)=O)C(=O)N[C@@H](C)C(=O)N[C@@H](CC(C)C)C(=O)N[C@@H](CCCNC(=N)N)C(=O)N[C@]1(C)CCCCCCC=CCCC[C@@](C)(C(=O)N[C@@H](Cc2ccc(O)cc2)C(=O)N[C@@H](Cc2ccc(F)cc2)C(=O)N[C@@H](C)C(N)=O)NC(=O)[C@H](CC(N)=O)NC(=O)[C@H](Cc2ccccc2)NC(=O)[C@H](C)NC(=O)[C@H](CC(=O)O)NC(=O)CNC(=O)[C@H](CCC(C)C)NC1=O)[C@@H](C)CC [Peptide #16] (Ac-IWIAQALR[R8][hLeu]GDAFN[S5]Y[Phe(4-F)]A-NH2; staple 9-16),Ki,[11],13 nM
same,% cell viability,[4],decreased the % viability of the cells
same,off-target cytotoxicity in the LDH assay,[12],No off-target cytotoxicity was observed
same,on-mechanism cytotoxic activity,[13],did not exhibit on-mechanism cytotoxic activity
same,% cell viability,[5],decreased the % viability of the cells
same,Ki,"[1]; TABLE 8, read-out: Mcl-1 Ki",27 nM
same,on-mechanism cytotoxic activity,[14],exhibited on-mechanism cytotoxic activity
same,Relative caspase-3/7 activation,"[6]; SK-MEL-2, control BIM SAHBA1 40 μM, 5% serum",higher levels of caspase-3/7 activation than the BIM SAHBA1 control
same,potency relative to BIM SAHBA1,[7]; Raji cell line,ten times more potent than BIM SAHBA1
same,IC50,[7],2000 nM
same,Profile,[3],Pan-selective
same,% cell viability,[8],decreased the % viability of the cells
same,Relative caspase-3/7 activation,"[9]; SK-MEL-28, control BIM SAHBA1 40 μM, 5% serum",higher levels of caspase-3/7 activation than the BIM SAHBA1 control
same,Relative caspase-3/7 activation,"[10]; A375-P, control BIM SAHBA1 40 μM, 5% serum",higher levels of caspase-3/7 activation than the BIM SAHBA1 control
same,EC50,[15],1200 to 1600 nM
same,anti-proliferative effects in combination,"[15]; Raji cells, combined with fixed doses of the other agent (peptide #16 0.95-3.8 μM or ABT-199 1.9-3.8 μM)",enhanced
same,Raji cell proliferation (fraction of control),"[15]; increasing doses, combination study",decreased
